The results in this text go back to patent EP0393529A1, “5,11-dihydro-6H-dipyrido [3,2-b:2',3'-e][1,4]diazepin-6-ones and their use in the prevention or treatment of AIDS” (Boehringer Ingelheim Pharmaceuticals Inc., priority 1989, dated 1990).

For experiment [1], the target named is T1, HIV-1 reverse transcriptase (Human immunodeficiency virus type 1 group M subtype B, UniProt P03367).
T1 construct: Reverse transcriptase enzyme from the LAV strain; made in house; host or cells: E. coli strain JM109, clone pBRTprt1+ in vector pIBI21 (lac promoter)
Briefly: Reverse Transcriptase (RT) Assay (RNA-dependent DNA polymerase activity, cell-free, 3H-dGTP incorporation). The format is biochemical. The settings on record: read-out: RT Inhibition % @ 10µg/ml. The protocol: After removal of the insoluble debris by centrifugation, the protein is precipitated by the addition of 3 volumes of saturated aqueous ammonium sulfate.
The 2X concentrated stock reaction mixture is aliquoted and stored at -20°C. […] This enzyme assay has been adapted to a 96 well microtiter plate system, and has been previously described (6). […] Twenty µl of 0.12-0.5M EDTA are added to the first three wells of the microtiter plate.
This group serves as background polymerization which is subtracted from all other groups. Twenty-five µl of the 2X reaction mixture are added to all wells and the assay is allowed to incubate at room temperature for 60 minutes. […] The microtiter plate is incubated for 15 minutes at 4°C and the precipitate is fixed onto #30 glass fiber paper (Schleicher & Schuell) using a Skatron semi-automatic harvester. […] Each vial receives 2 mls of scintillation cocktail and is counted in a Beckman beta counter.

Experiment [2] relates to HTLV-IIIB strain of HIV-1. The experiment in a line: Human T-Cell Culture Assay (syncytia formation in C8166 cells). The format is cell-based. The settings on record: Human immunodeficiency virus 1, IIIB, 96 h, syncytia read four days after virus challenge, read-out: T-Cell Culture Assay(IC₅₀). The protocol:
In order to confirm that compounds which are active in the RT Assay also have the ability to inhibit HIV replication in a living system, compounds according to the invention were also tested in the human T-Cell Culture Assay described below.
Assay Theory: Formation of syncytia is a feature of in vitro cultures of CD4+ T-cells infected with HIV-1. In this assay, T-cells are treated with a putative replication inhibiting compound and then infected with HIV-1. After incubation the culture is checked for the formation of syncytia. The absence or reduction is the number of syncytia is used as a measure of the test compound's ability to inhibit HIV replication.
Assay Method: The target cells, designated C8166, are a subclone of human lymphoma cells of T-cell origin and are established at an initial density of 5x10⁴ per 100 ul in RPMI 1640 (+ 10% fetal bovine serum) culture medium in 96 well flat bottom plates. A selected amount of test compound, dissolved in DMSO is included. After 24 hours, 50-100 TCID50's (the dose that results in induced effect in 50% of test cultures) of the HTLV-IIIB strain of HIV-1 (2) are innoculated into each culture. Control cultures receive compound or virus only. […] The percent inhibition by the test compound is determined by comparison with control values. […]

The structures appear in SMILES notation. Like-named read-outs stand apart in the source and are kept apart here.

With `CCCN1c2ncccc2NC(=O)c2cccnc21` [Example 2, 5,11-Dihydro-11-propyl-6H-dipyrido[3,2-b:2′,3′-e][1,4]diazepin-6-one], the inhibition at 10 µg/mL in experiment [1] (10µg/ml compound) was determined as 94%.
Still for that read-out and setting: in the case of `CCCN1c2ncccc2C(=O)N(C)c2cccnc21` [Example 3, 5,11-Dihydro-5-methyl-11-propyl-6H-dipyrido[3,2-b:2′,3′-e][1,4]diazepin-6-one] it was 94%.
In the case of `CCN1C(=O)c2cccnc2N(CC)c2ncccc21` [Example 4, 5,11-Diethyl-5,11-dihydro-6H-dipyrido[3,2-b:2′,3′-e][1,4]diazepin-6-one], the inhibition at 10 µg/mL in experiment [1] (10µg/ml compound) turned out to be 98%. Besides, the IC50 in experiment [2] is 190 µM.
Regarding `CCN1c2ncccc2C(=O)N(C)c2cccnc21` [Example 8, 5,11-Dihydro-11-ethyl-5-methyl-6H-dipyrido[3,2-b:2′,3′-e][1,4]diazepin-6-one], the inhibition at 10 µg/mL in experiment [1] stood at 100%.
